Data published in EPA's CvTdb concentration-time database.

What was measured:
Rat [1] = experiment: concentration in liver after dosing; conditions: dosed: Fluorotelomer alcohol 8+2, oral
Rat [2] = experiment: concentration in brain after dosing; conditions: dosed: Fluorotelomer alcohol 8+2, oral
Rat [3] = experiment: concentration in plasma after dosing
Rat [4] = experiment: concentration in kidney after dosing; conditions: 1 h; dosed: Fluorotelomer alcohol 8+2; 80 mg/kg; oral; Female; Harlan Sprague Dawley
Rat [5] = experiment: concentration in kidney after dosing; conditions: 1 h; dosed: Fluorotelomer alcohol 8+2; 80 mg/kg; oral; Female; Harlan Sprague Dawley; remark: listed apart in the source
Rat [6] = experiment: concentration in kidney after dosing; conditions: dosed: Fluorotelomer alcohol 8+2, oral
Rat [7] = experiment: concentration in kidney after dosing; conditions: 12 h; dosed: Fluorotelomer alcohol 8+2; 80 mg/kg; oral; Female; Harlan Sprague Dawley
Rat [8] = experiment: concentration in kidney after dosing; conditions: 0.5 h; dosed: Fluorotelomer alcohol 8+2; 24 mg/kg; oral; Male; Harlan Sprague Dawley
Rat [9] = experiment: concentration in kidney after dosing; conditions: 0.5 h; dosed: Fluorotelomer alcohol 8+2; 80 mg/kg; oral; Female; Harlan Sprague Dawley
Rat [10] = experiment: concentration in plasma after dosing; conditions: 20 min; dosed: Di-n-butyl phthalate; 50 mg/kg; oral; Male; Sprague-Dawley

OCCC(F)(F)C(F)(F)C(F)(F)C(F)(F)C(F)(F)C(F)(F)C(F)(F)C(F)(F)F [Fluorotelomer alcohol 8+2]
Conditions	concentration in brain, Rat [2] [ng/g]	concentration in kidney, Rat [6] [ng/g]	concentration in liver, Rat [1] [ng/g]
0.5 h, 24 mg/kg, Male, Harlan Sprague Dawley	4540	3380	17700
0.5 h, 24 mg/kg, Male, Harlan Sprague Dawley - this seems too small	978	1060	2190
0.5 h, 80 mg/kg, Female, Harlan Sprague Dawley	5440	2910	11600
1 h, 24 mg/kg, Male, Harlan Sprague Dawley	2450	1560	3900
1 h, 80 mg/kg, Female, Harlan Sprague Dawley	9090	6420	12500
3 h, 24 mg/kg, Male, Harlan Sprague Dawley	2300	1070	2230
3 h, 80 mg/kg, Female, Harlan Sprague Dawley	8400	3900	9320
6 h, 24 mg/kg, Male, Harlan Sprague Dawley	663	460	2050
6 h, 80 mg/kg, Female, Harlan Sprague Dawley	2060	1450	3970
12 h, 24 mg/kg, Male, Harlan Sprague Dawley	95.5	185	604
12 h, 80 mg/kg, Female, Harlan Sprague Dawley	679	373	1610

concentration in plasma [ng/mL], Rat [3]
Conditions	0.25 h	0.5 h	0.75 h	1 h	3 h	5 min	6 h	9 h	12 h	24 h
dosed: Fluorotelomer alcohol 8+2, 12 mg/kg, iv, Male, F344	1590	1260	422	625	118	3550	48.7	23.8	5.59	4.63
dosed: Fluorotelomer alcohol 8+2, 12 mg/kg, oral, Male, Harlan Sprague Dawley	82.2	215	348	264	84.4	2.61	37.1	11.6	4.01	1.18
dosed: Fluorotelomer alcohol 8+2, 24 mg/kg, oral, Male, Harlan Sprague Dawley	110	–	–	–	–	6.33	–	40.2	–	2.62
dosed: Fluorotelomer alcohol 8+2, 40 mg/kg, iv, Female, Harlan Sprague-Dawley	–	8470	2350	2720	–	–	–	76.6	34.6	23.2
dosed: Fluorotelomer alcohol 8+2, 40 mg/kg, iv, Male, F344	13000	5070	–	–	378	–	254	47	–	–

Conditions	concentration in kidney [ng/g]
Rat [4]	3330
Rat [5]	1950
Rat [7]	351
Rat [8]	1800
Rat [9]	4140

CCCCOC(=O)c1ccccc1C(=O)O [Mono-n-butyl phthalate]
Rat [3], dosed: Di-n-butyl phthalate, Male, Sprague-Dawley
Conditions	concentration in plasma [ng/mL]
0.25 h, 100 mg/kg, oral	26200
0.5 h, 50 mg/kg, oral	16600
0.5 h, 100 mg/kg, oral	40300
1 h, 20 mg/kg, iv	3060
1 h, 50 mg/kg, oral	5560
1 h, 100 mg/kg, oral	23500
1.5 h, 20 mg/kg, iv	517
2 h, 20 mg/kg, iv	945
2 h, 50 mg/kg, oral	2700
2 h, 100 mg/kg, oral	9480
2 h, 200 mg/kg, oral	114000
3 h, 20 mg/kg, iv	1380
3 h, 50 mg/kg, oral	2390
3 h, 100 mg/kg, oral	6880
4 h, 20 mg/kg, iv	667
4 h, 100 mg/kg, oral	10000
5 h, 20 mg/kg, iv	1120
5 min, 20 mg/kg, iv	29400
5 min, 50 mg/kg, oral	3240
5 min, 100 mg/kg, oral	6120
6 h, 20 mg/kg, iv	627
6 h, 50 mg/kg, oral	4090
6 h, 100 mg/kg, oral	7390
8 h, 20 mg/kg, iv	522
10 h, 50 mg/kg, oral	506
10 h, 100 mg/kg, oral	3970
10 min, 20 mg/kg, iv	31300
10 min, 50 mg/kg, oral	20500
15 h, 50 mg/kg, oral	629
15 h, 100 mg/kg, oral	538
20 h, 100 mg/kg, oral	492
20 h, 200 mg/kg, oral	1820
20 min, 20 mg/kg, iv	24200
20 min, 50 mg/kg, oral	13800
24 h, 100 mg/kg, oral	517
40 min, 20 mg/kg, iv	5840
40 min, 50 mg/kg, oral	12000

Conditions	concentration in plasma [ng/mL]
Rat [10]	32400
